Source: PMC6934184, “Selective DNA-PKcs inhibition extends the therapeutic index of localized radiotherapy and chemotherapy” (The Journal of Clinical Investigation, 2019)

Target: T1, PTK2B (FAK2) (Homo sapiens, UniProt Q14289)
T1 construct: purchased Thermo Fisher Scientific (Life Technologies) SelectScreen
Assay: SelectScreen Z'LYTE
Assay type: biochemical
Experimental: The in vitro kinase selectivity of NU5455 was determined using the SelectScreen Broad Assay Panel (Thermo Fisher Scientific) involving activity and binding assays (Supplemental Table 1). […] Class IA PI3Ks were measured using the p85α subunit.
Kinase [ATP] % Assay Kinase [ATP] % Assay Kinase [ATP] % Assay Kinase [ATP] % Assay
DNA-PK Km app 98.3 Z LATS2 n/a 4.7 L KIT D820E n/a 1.3 L GSK3B (GSK3 beta) Km app -2.5 Z
PIK3C3 (hVPS34) Km app 85.9 A PRKCZ (PKC zeta) Km app 4.7 Z GRK1 n/a 1.3 L BMPR2 n/a -2.5 L
PIK3C2B (PI3K-C2 beta) 10 28.9 A FGFR1 Km app 4.7 Z BRSK2 n/a 1.2 L CDC42 BPB (MRCKB) Km app -2.5 Z
SNF1LK2 Km app 26.6 Z MINK1 Km app 4.6 Z NUAK1 (ARK5) Km app 1.2 A AMPK (A2/B2/G2) n/a -2.6 L
HCK Km app 18.0 Z CSF1R (FMS) Km app 4.3 Z CDK9/cyclin K n/a 1.0 L PRKG1 Km app -2.7 Z
NEK2 Km app 17.8 Z CSNK1G3 (CK1 gamma 3) Km app 4.2 Z NUAK2 n/a 1.0 L KIT T670E n/a -2.8 L
ALK Km app 17.3 Z STK32C (YANK3) n/a 4.2 L CDK2/cyclin O n/a 0.9 L ERBB4 (HER4) Km app -2.8 Z
FGFR3 K650M n/a 16.5 L STK22D (TSSK1) Km app 4.2 Z CAMKK2 (CaMKK beta) n/a 0.9 L PLK4 n/a -2.8 L
SIK3 n/a 16.1 L TAOK3 (JIK) n/a 4.2 L FGFR3 Km app 0.9 Z GRK7 Km app -3.0 Z
LYN A Km app 15.2 Z RPS6KA4 (MSK2) Km app 4.2 Z ULK2 n/a 0.9 L MAPKAPK2 Km app -3.1 Z
BMPR1B (ALK6) n/a 14.5 L PTK2B (FAK2) Km app 4.2 Z KIT D816V n/a 0.9 L FGFR4 Km app -3.1 Z
INSRR (IRR) Km app 14.1 Z CLK2 Km app 4.1 Z CAMK1 (CaMK1) 10 0.8 A CASK n/a -3.1 L
PLK2 Km app 14.1 Z STK24 (MST3) Km app 4.1 Z PTK6 (Brk) Km app 0.7 Z GRK5 Km app -3.2 Z
PRKACA (PKA) Km app 14.0 Z CAMK1D (CaMKI delta) Km app 4.1 Z CAMK2B (CaMKII beta) Km app 0.7 Z EGFR (ErbB1) T790M Km app -3.3 Z
EIF2AK2 (PKR) n/a 13.3 L INSR Km app 4.1 Z ACVR1 (ALK2) n/a 0.7 L PAK4 Km app -3.3 Z
PRKX Km app 12.5 Z IRAK1 Km app 4.0 A ABL1 H396P n/a 0.6 L DAPK3 (ZIPK) Km app -3.4 Z
FGR Km app 12.1 Z SRC N1 Km app 3.9 Z MERTK (cMER) A708S n/a 0.6 L RET M918T n/a -3.5 L
CLK1 Km app 11.7 Z SRPK2 Km app 3.9 Z MAPKAPK5 (PRAK) Km app 0.6 Z PRKCQ (PKC theta) Km app -3.7 Z
MARK3 Km app 11.4 Z RPS6KA6 (RSK4) Km app 3.8 Z AKT1 (PKB alpha) Km app 0.5 Z CAMKK1 (CAMKKA) n/a -3.8 L
PDGFRB (PDGFR beta) Km app 11.0 Z GRK6 Km app 3.7 Z NTRK3 (TRKC) Km app 0.4 Z FLT3 D835Y Km app -3.9 Z
PRKCN (PKD3) Km app 10.7 Z PKN1 (PRK1) Km app 3.6 Z ZAP70 Km app 0.3 Z ROCK2 Km app -4.1 Z
STK16 (PKL12) n/a 10.5 L MAP3K8 (COT) 100 3.5 Z CSNK1A1 (CK1 alpha 1) Km app 0.3 Z CHUK (IKK alpha) Km app -4.2 A
FES (FPS) Km app 10.4 Z FLT4 (VEGFR3) Km app 3.5 Z MYLK (MLCK) n/a 0.2 L AXL Km app -4.2 Z
ABL1 Km app 10.4 Z GRK4 Km app 3.5 Z MKNK2 (MNK2) n/a 0.2 L PIM2 Km app -4.3 Z
MUSK Km app 10.3 Z FRK (PTK5) Km app 3.4 Z AMPK (A1/B1/G3) n/a 0.2 L PAK1 Km app -4.4 Z
MAPK1 (ERK2) Km app 10.1 Z FYN A n/a 3.3 L MAP3K2 (MEKK2) n/a 0.1 L BMPR1A (ALK3) n/a -4.4 L
BRAF 100 9.9 Z CDK1/cyclin A2 n/a 3.3 L CDK8/cyclin C n/a 0.1 L STK4 (MST1) Km app -4.4 Z
IGF1R Km app 9.7 Z KIT V559D T670I n/a 3.1 L MARK2 Km app 0.1 Z PRKCH (PKC eta) Km app -4.6 Z
MAPK14 (p38 alpha) Km app 9.7 Z SPHK2 10 3.1 A ICK n/a 0.0 L SGKL (SGK3) Km app -4.6 Z
LCK Km app 9.6 Z FGFR3 G697C n/a 3.1 L FGFR2 Km app 0.0 Z PI4KB (PI4K beta) Km app -4.7 A
MAPK11 (p38 beta) Km app 9.5 Z RIPK2 n/a 3.1 L AKT2 (PKB beta) Km app 0.0 Z PRKCE (PKC epsilon) Km app -4.9 Z
SRC Km app 9.5 Z PAK6 Km app 3.0 Z EPHB2 Km app -0.1 Z PHKG1 Km app -5.0 Z
CHEK1 (CHK1) Km app 9.3 Z LYN B Km app 3.0 Z TGFBR2 n/a -0.1 L PDGFRA D842V Km app -5.0 Z
CAMK2D (CaMKII delta) Km app 9.3 Z DAPK2 n/a 2.9 L TEK (Tie2) Km app -0.1 Z PRKG2 (PKG2) Km app -5.1 Z
PLK1 Km app 9.2 Z EPHA4 Km app 2.9 Z AURKA (Aurora A) Km app -0.1 Z TYRO3 (RSE) Km app -5.1 Z
RET Y791F Km app 9.2 Z PIK3CG (p110 gamma) Km app 2.9 A KIT D816H n/a -0.2 L TAOK2 (TAO1) Km app -5.1 Z
FLT3 Km app 9.1 Z HIPK1 (Myak) Km app 2.8 Z KIT N822K n/a -0.2 L EPHB4 Km app -5.3 Z
MAPK10 (JNK3) 100 9.0 Z ADRBK2 (GRK3) Km app 2.8 Z PRKACG (PRKAC gamma) n/a -0.2 L AURKC (Aurora C) Km app -5.4 Z
CSNK2A2 (CK2 alpha 2) Km app 8.7 Z STK17B (DRAK2) n/a 2.7 L TEK (TIE2) Y1108F n/a -0.3 L JAK1 Km app -5.7 Z […]

T1 sequence (Q14289 whole entry): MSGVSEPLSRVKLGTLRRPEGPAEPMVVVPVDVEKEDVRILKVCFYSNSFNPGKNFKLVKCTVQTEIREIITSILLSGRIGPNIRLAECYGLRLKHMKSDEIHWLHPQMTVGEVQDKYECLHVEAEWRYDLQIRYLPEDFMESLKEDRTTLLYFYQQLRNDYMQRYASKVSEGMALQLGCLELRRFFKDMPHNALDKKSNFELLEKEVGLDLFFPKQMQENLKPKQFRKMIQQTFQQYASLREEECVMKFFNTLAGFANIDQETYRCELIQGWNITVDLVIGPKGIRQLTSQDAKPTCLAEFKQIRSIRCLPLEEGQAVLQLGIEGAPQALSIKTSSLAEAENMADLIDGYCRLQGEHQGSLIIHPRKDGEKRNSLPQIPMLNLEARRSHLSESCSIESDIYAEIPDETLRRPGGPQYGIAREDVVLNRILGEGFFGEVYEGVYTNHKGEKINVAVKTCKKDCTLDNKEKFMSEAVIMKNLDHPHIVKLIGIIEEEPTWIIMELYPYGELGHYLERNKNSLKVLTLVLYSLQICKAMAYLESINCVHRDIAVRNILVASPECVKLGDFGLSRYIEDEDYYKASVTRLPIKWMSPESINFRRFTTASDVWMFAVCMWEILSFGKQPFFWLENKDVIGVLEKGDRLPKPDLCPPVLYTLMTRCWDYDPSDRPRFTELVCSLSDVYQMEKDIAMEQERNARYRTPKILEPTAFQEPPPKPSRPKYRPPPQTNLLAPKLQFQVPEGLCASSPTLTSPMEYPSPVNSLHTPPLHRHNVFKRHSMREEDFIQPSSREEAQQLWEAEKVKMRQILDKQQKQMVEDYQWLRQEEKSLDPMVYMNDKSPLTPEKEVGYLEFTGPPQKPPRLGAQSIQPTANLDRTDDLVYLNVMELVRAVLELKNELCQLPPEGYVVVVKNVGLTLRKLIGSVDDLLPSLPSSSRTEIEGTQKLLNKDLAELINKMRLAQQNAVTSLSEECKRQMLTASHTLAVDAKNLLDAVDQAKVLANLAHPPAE

CN(C(=O)CN1CCOCC1)c1ccc2sc3c(-c4cccc5c(=O)cc(N6CC7CCC(C6)O7)oc45)cccc3c2c1 [NU5455]
inhibition at 1 µM: 4.2%
